What was measured:
[1] = tested on: tobacco cutworm (Spodoptera litura); experiment: Biological Test 1: mortality of larvae on impregnated artificial bait; assay type: in vivo; details: 144 h, read-out: mortality of the larvae
Procedure: Emulsifiable concentrates were prepared for each of the present compounds according to the formulation example 1. Thirteen grams of artificial bait for tobacco cutworm (Spodoptera litura) were placed in a polyethylene cup (diameter: 11 cm) and impregnated with 2 ml of the 500 ppm emulsion prepared by diluting the emulsifiable concentrates with water. Ten 4-instar larvae of Spodoptera litura were put in the polyethylene cup. After 6 days, the mortality of the larvae was examined.

[2] = tested on: brown planthopper (Nilaparvata lugens); experiment: Biological Test 2: mortality of larvae on dipped rice plant stalk; assay type: in vivo; details: 144 h, read-out: mortality of the larvae
Procedure: A stalk of a rice plant was dipped for one minute in a 500 ppm aqueous emulsion obtained by diluting each emulsifiable concentrate of the present compounds prepared according to the formulation example 1. The rice plant stalk was air-dried and placed in a polyethylene cup (diameter: 5.5 cm) where filter paper (diameter: 5.5 cm) impregnated with 1 ml of water was put. Approximately 30 larvae of brown planthopper (Nilaparvata lugens) were put in the polyethylene cup. After 6 days, the mortality of the larvae was examined.

[3] = tested on: southern corn rootworm (Diabrotica undecimpunctata howardi); experiment: Biological Test 3: mortality of hatched larvae and eggs; assay type: in vivo; details: 192 h, read-out: mortality of the hatched larvae and eggs
Text: Filter paper of 5.5 cm in diameter was laid in the bottom of a polyethylene cup (diameter: 5.5 cm). […] After 8 days, the mortality of the hatched larvae and eggs was examined.

[4] = tested on: houseflies (Musca domestica); experiment: Biological Test 4: mortality of female houseflies low sensitive to pyrethroids, treated filter paper; assay type: in vivo; details: 24 h
Procedure: (§1) Filter paper of 5.5 cm in diameter was laid in the bottom of a polyethylene cup (diameter: 5.5 cm). After 0.7 ml of a 500 ppm aqueous emulsion obtained by diluting each emulsifiable concentrate prepared according to the formulation example 1 was dropped on the filter paper and approximately 30 mg of sucrose as bait was uniformly scattered. Ten female houseflies (Musca domestica), which were low sensitive to pyrethroids, were left in the cup with a cover. After one day, the mortality was examined.

[5] = tested on: German cockroaches (Blattella germanica); experiment: Biological Test 5: mortality of male German cockroaches low sensitive to pyrethroids, treated filter paper; assay type: in vivo; details: 144 h
Procedure: as §1, with “Two male German cockroaches (Blattella germanica),” for “Ten female houseflies (Musca domestica),”, “six days,” for “one day,”

[6] = tested on: common mosquitoes (Culex pipiens pallens); experiment: Biological Test 6: mortality of last-instar mosquito larvae in water; assay type: in vivo; details: 24 h, read-out: mortality of the common mosquitoes
Procedure: 0.7 ml of aqueous emulsion, obtained by diluting emulsifiable concentrate prepared for each of the present compounds according to the formulation example 1, was added to 100 ml of ion-exchanged water (concentration of active ingredient: 3.5 ppm). Twenty last-instar larvae of common mosquitoes (Culex pipiens pallens) were left in the water. After one day, the mortality of the common mosquitoes was examined.

[7] = tested on: common mosquitoes (Culex pipiens pallens); experiment: Biological Test 7: knock-down of mosquitoes by sprayed oil solution; assay type: in vivo; details: 0.7 ml of 0.1% oil solution sprayed in 0.34 m^3 chamber; after 15 minutes
Procedure: Ten female common mosquitoes (Culex pipiens pallens) were left in a glass chamber (70 cm×70 cm×70 cm: 0.34 m^3). 0.7 ml of 0.1% oil solution prepared for each of the present compounds according to the formulation example 7 was sprayed with a spray gun at 0.8 atmospheric pressure. After 15 minutes, the rate of knocked-down mosquitoes was examined.

[8] = tested on: webbing clothes moth (Tineola bisselliella); experiment: Biological Test 12: topical application to larvae of webbing clothes moth, mortality and fabric damage; assay type: in vivo
Procedure: Each of the present compounds diluted with acetone to a predetermined concentration was applied to ten middle instar larvae of webbing clothes moth (Tineola bisselliella) at the central part of the back so as to give the active ingredient in a dose of 3 μg/insect. A wool muslin fabric (2 cm×2 cm in size) was given to the webbing clothes moths as the food. After 7 days, the mortality and the degree of damage of the wool muslin fabric by the moths were examined (two replicate).

[9] = tested on: webbing clothes moth (Tineola bisselliella); experiment: Biological Test 14: treated filter paper in cardboard box, percent moribund, fabric damage and persistence; assay type: in vivo; details: 36 mg on filter paper
Procedure: A filter paper (3.2 cm×3.2 cm in size) treated with 36 mg of each of the present compounds and two wool muslin fabrics (25 cm×25 cm in size) were hung down at the upper part of a corrugated cardboard box (29 cm×29 cm×29 cm in size). After standing at 25° C. and a humidity of 60% for 1 week, two tea-strainer balls holding 7 to 10 middle instar larvae of webbing clothes moth (Tineola bisselliella) and one piece of wool muslin cloth (2 cm×2 cm in size) were hung down at the upper part of the box. The box was closed with a lid. After one week, the box was opened, and the percent moribund and the degree of damage of the wool muslin cloth by the moths were examined. The same tests was repeated 2 weeks, 3 weeks and 5 weeks after the treatment to examine the persistance of the present compound. The degree of damage was represented by "-" in no damage, "+" in slight damage, "++" in heavy damage and "+++" in severe damage.

[10] = tested on: German cockroaches (Blattela germanica); experiment: Biological Test 15: repellency, treated sheet shelter; assay type: in vivo; details: 1.0 ml of 0.1% by weight acetone solution on filter paper; 24 hours
Procedure: The obtained sheet was folded as to be a triangular tube where one side of the triangle-shaped base was 3 cm.
In a plastic cup (650 ml volume), said triangular tube was placed as a shelter (cockroach hiding residence). Ten adult German cockroaches (Blattela germanica) were placed in said plastic cup together with food and water and then observed the number of cockroaches in the shelter 24 hours later (two replicate). Repellency (%) was calculated by the following formula: [formula]

[11] = tested on: houseflies (Musca domestica); experiment: Biological Test 16: topical application of compound (1) with piperonyl butoxide, mortality; assay type: in vivo; details: after 24 hours
Procedure: The combination rate of piperonyl butoxide to the present compound was 0, 2, 4, 8 and 16 times. The mixture was dissolved in acetone. The acetone solution (0.5 μL) was applied to 10 female houseflies (Musca domestica) at the back thoracic region. After 24 hours, the number of dead insects was observed (2 repetition) and mortality was calculated.

[12] = Toxicity Test: acute oral LD50; details: rat, in vivo, corn oil, fasted male 7-week old rats, after 7 days
Procedure: After subjecting the rats to a twenty-hour fasting, 0.1 ml of the diluted solution per 10 g weight was forcibly applied into the stomach of four male 7-week old rats. The rats were given food and water four hours after the application and thereafter regularly fed and watered, and kept in a cage. After 7 days, the mortality was examined for the rats and LD50 was calculated.

Cc1ccc(COC(=O)[C@@H]2[C@H](/C=C(\Cl)C(F)(F)F)C2(C)C)o1 (relative stereo) [Compound (1), 5-methyl-2-furfuryl (1RS,cis)-3-(Z-2-chloro-3,3,3-trifluoroprop-1-enyl)-2,2-dimethylcyclopropanecarboxylate]
mortality at 500 µg/mL [1]: 100% | mortality at 500 ppm [2]: ≥ 90% | mortality at 50 ppm [3]: 100% | mortality at 500 ppm [4]: 100% | mortality at 500 ppm [5]: 100% | mortality at 3.5 ppm [6]: ≥ 90% | rate of knocked-down mosquitoes [7]: ≥ 90% | degree of damage of the wool muslin fabric ([8]; 3 μg/insect, after 7 days): no damage | mortality at 0.003 mg ([8]; Tineola bisselliella, 168 h): 100% | degree of damage ([9]; After 1 week): - | degree of damage ([9]; After 2 weeks): - | degree of damage ([9]; After 3 weeks): - | degree of damage ([9]; After 5 weeks): - | Repellency (%) [10]: 100% | Mortality (%) ([11]; compound (1) 0.5 μg/female, piperonyl butoxide 0): 30% | Mortality (%) ([11]; compound (1) 0.5 + piperonyl butoxide 2.0 μg/female): 100% | Mortality (%) ([11]; compound (1) 0.5 + piperonyl butoxide 4.0 μg/female): 100% | Mortality (%) ([11]; compound (1) 0.5 + piperonyl butoxide 8.0 μg/female): 100% | LD50 at 168 h [12]: 300 mg/kg
